Experimental data reported in patent US6737383B1, “Herbicidal oxadiazolidines” (priority 1999, dated 2004).

Experiments:
blackgrass = assay: Test B pre/postemergence blackgrass; format: in vivo, Alopecurus myosuroides
Procedure, shortened: (§1)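 Response is a visual 0-to-10 score relative to untreated plants, where 0 means no effect and 10 means complete control, taken twelve to sixteen days after application. Treatments went onto soil at planting and onto foliage of 1- to 4-leaf plants, using a surfactant-containing non-phytotoxic solvent.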

surinam grass = assay: Test B pre/postemergence surinam grass; format: in vivo, Brachiaria decumbens; details: Postemergence
Procedure, shortened: as §1

cocklebur = assay: Test B pre/postemergence cocklebur; format: in vivo, Xanthium strumarium
Procedure, shortened: as §1

corn = assay: Test B pre/postemergence corn; format: in vivo, Zea mays
Procedure, shortened: as §1

crabgrass = assay: Test B pre/postemergence crabgrass; format: in vivo, Digitaria sanguinalis
Procedure, shortened: as §1

giant foxtail = assay: Test B pre/postemergence giant foxtail; format: in vivo, Setaria faberii
Procedure, shortened: as §1

pigweed = assay: Test B pre/postemergence pigweed; format: in vivo, Amaranthus retroflexus
Procedure, shortened: as §1

rape = assay: Test B pre/postemergence rape; format: in vivo, Brassica napus
Procedure, shortened: as §1

soybean = assay: Test B pre/postemergence soybean; format: in vivo, Glycine max
Procedure, shortened: as §1

sugar beet = assay: Test B pre/postemergence sugar beet; format: in vivo, Beta vulgaris
Procedure, shortened: as §1

wheat = assay: Test B pre/postemergence wheat; format: in vivo, Triticum aestivum
Procedure, shortened: as §1

purple nutsedge = assay: Test B pre/postemergence purple nutsedge; format: in vivo, Cyperus rotundus
Procedure, shortened: as §1

rice = assay: Test B flood test rice; format: in vivo, Oryza sativa
Procedure, shortened: (§2)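 Each value is a visual injury score relative to controls, with 10 meaning complete control and 0 no effect. Evaluation took place twelve to sixteen days after the 2-leaf-stage plants were treated and kept in the greenhouse.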

smallflower flatsedge = assay: Test B flood test smallflower flatsedge; format: in vivo, Cyperus difformis
Procedure, shortened: as §2

duck salad = assay: Test B flood test duck salad; format: in vivo, Heteranthera limosa
Procedure, shortened: as §2

bamyardgrass = assay: Test B flood test barnyardgrass; format: in vivo, Echinochloa crus-galli
Procedure, shortened: as §2

[1] = Postemergence, Rate 62 g/ha, scale 0 to 10, 0 is no effect, 10 is complete control
[2] = Postemergence, Rate 125 g/ha, scale of 0 to 10 where 0 is no effect and 10 is complete control
[3] = Preemergence, Rate 125 g/ha, scale of 0 to 10 where 0 is no effect and 10 is complete control
[4] = Preemergence, Rate 250 g/ha, scale 0 (no effect) to 10 (complete control)
[5] = Rate 62 g/ha, Preemergence, scale 0 to 10
[6] = Rate 250 g/ha, Postemergence, scale 0 to 10, 0 is no effect, 10 is complete control
[7] = Rate 500 g/ha, Postemergence, scale 0 to 10, 0 is no effect, 10 is complete control
[8] = Rate 500 g/ha, Preemergence, scale 0 to 10 (0 no effect, 10 complete control)
[9] = Pre-emergence, Rate 62 g/ha, scale 0 to 10, 0 is no effect, 10 is complete control
[10] = Rate 125 g/ha, Pre-emergence section (flood test species), scale 0 to 10, 0 no effect, 10 complete control
[11] = Rate 250 g/ha, Pre-emergence (flood test species), scale 0 to 10, 0 is no effect, 10 is complete control
[12] = Rate 500 g/ha, Pre-emergence section of Table B, 0 to 10 scale (0 no effect, 10 complete control)

Question: Which “Plant response rating, Blackgrass” value (blackgrass; [1]) does the source give for `CC(C)N(C(=O)n1oc(=O)n(CC2=NOCCO2)c1=O)c1ccc(Cl)cc1` [Compound 740] here?
Answer: 3

Question: What about the “Blackgrass plant response rating” value (blackgrass; [2]) of the same compound?
Answer: 3

Question: And the “Plant response rating, Blackgrass” value (blackgrass; [3])?
Answer: 6

Question: What about the “Blackgrass plant response rating” value (blackgrass; [4]) of the same compound?
Answer: 8

Question: What about the “Blackgrass plant response rating” value (blackgrass; [5]) of the same compound?
Answer: 3

Question: What about the “Blackgrass plant response rating” value (blackgrass; [6]) of the same compound?
Answer: 4

Question: What about the “Blackgrass plant response rating” value (blackgrass; [7]) of the same compound?
Answer: 7

Question: What about the “Blackgrass plant response rating” value (blackgrass; [8]) of the same compound?
Answer: 9

Question: And the “Plant response rating, B. signalgrass” value (surinam grass; Rate 62 g/ha, scale 0 to 10, 0 is no effect, 10 is complete control)?
Answer: 0

Question: What about the “B. signalgrass plant response rating” value (surinam grass; Rate 125 g/ha, scale of 0 to 10 where 0 is no effect and 10 is complete control) of the same compound?
Answer: 0

Question: What about the “B. signalgrass plant response rating” value (surinam grass; Rate 250 g/ha, scale 0 to 10, 0 is no effect, 10 is complete control) of the same compound?
Answer: 0

Question: What about the “B. signalgrass plant response rating” value (surinam grass; Rate 500 g/ha, scale 0 to 10, 0 is no effect, 10 is complete control) of the same compound?
Answer: 2

Question: And the “Plant response rating, Cocklebur” value (cocklebur; [1])?
Answer: 0

Question: And the “Cocklebur plant response rating” value (cocklebur; [2])?
Answer: 0

Question: And the “Plant response rating, Cocklebur” value (cocklebur; [3])?
Answer: 0

Question: And the “Cocklebur plant response rating” value (cocklebur; [4])?
Answer: 0

Question: What about the “Cocklebur plant response rating” value (cocklebur; [5]) of the same compound?
Answer: 0

Question: What about the “Cocklebur plant response rating” value (cocklebur; [6]) of the same compound?
Answer: 3

Question: What about the “Cocklebur plant response rating” value (cocklebur; [7]) of the same compound?
Answer: 3

Question: And the “Cocklebur plant response rating” value (cocklebur; [8])?
Answer: 0

Question: What about the “Plant response rating, Corn” value (corn; [1]) of the same compound?
Answer: 0

Question: And the “Corn plant response rating” value (corn; [2])?
Answer: 0

Question: And the “Plant response rating, Corn” value (corn; [3])?
Answer: 0

Question: What about the “Corn plant response rating” value (corn; [4]) of the same compound?
Answer: 0

Question: What about the “Corn plant response rating” value (corn; [5]) of the same compound?
Answer: 0

Question: And the “Corn plant response rating” value (corn; [6])?
Answer: 0

Question: What about the “Corn plant response rating” value (corn; [7]) of the same compound?
Answer: 0

Question: And the “Corn plant response rating” value (corn; [8])?
Answer: 0

Question: And the “Plant response rating, Crabgrass” value (crabgrass; [1])?
Answer: 0

Question: What about the “Crabgrass plant response rating” value (crabgrass; [2]) of the same compound?
Answer: 0

Question: And the “Plant response rating, Crabgrass” value (crabgrass; [3])?
Answer: 4

Question: And the “Crabgrass plant response rating” value (crabgrass; [4])?
Answer: 9

Question: What about the “Crabgrass plant response rating” value (crabgrass; [5]) of the same compound?
Answer: 4

Question: And the “Crabgrass plant response rating” value (crabgrass; [6])?
Answer: 9

Question: What about the “Crabgrass plant response rating” value (crabgrass; [7]) of the same compound?
Answer: 9

Question: And the “Crabgrass plant response rating” value (crabgrass; [8])?
Answer: 9

Question: What about the “Plant response rating, Giant foxtail” value (giant foxtail; [1]) of the same compound?
Answer: 2

Question: And the “Giant foxtail plant response rating” value (giant foxtail; [2])?
Answer: 7

Question: And the “Plant response rating, Giant foxtail” value (giant foxtail; [3])?
Answer: 9

Question: What about the “Giant foxtail plant response rating” value (giant foxtail; [4]) of the same compound?
Answer: 9

Question: And the “Giant foxtail plant response rating” value (giant foxtail; [5])?
Answer: 4

Question: And the “Giant foxtail plant response rating” value (giant foxtail; [6])?
Answer: 8

Question: What about the “Giant foxtail plant response rating” value (giant foxtail; [7]) of the same compound?
Answer: 9

Question: And the “Giant foxtail plant response rating” value (giant foxtail; [8])?
Answer: 10

Question: And the “Plant response rating, Redroot pigweed” value (pigweed; [1])?
Answer: 0

Question: What about the “Redroot pigweed plant response rating” value (pigweed; [2]) of the same compound?
Answer: 2

Question: What about the “Plant response rating, Redroot pigweed” value (pigweed; [3]) of the same compound?
Answer: 9

Question: And the “Redroot pigweed plant response rating” value (pigweed; [4])?
Answer: 9

Question: And the “Redroot pigweed plant response rating” value (pigweed; [5])?
Answer: 3

Question: And the “Redroot pigweed plant response rating” value (pigweed; [6])?
Answer: 4

Question: And the “Redroot pigweed plant response rating” value (pigweed; [7])?
Answer: 8

Question: What about the “Redroot pigweed plant response rating” value (pigweed; [8]) of the same compound?
Answer: 10

Question: And the “Plant response rating, Rape” value (rape; [1])?
Answer: 0

Question: What about the “Rape plant response rating” value (rape; [2]) of the same compound?
Answer: 0

Question: And the “Plant response rating, Rape” value (rape; [3])?
Answer: 3

Question: And the “Rape plant response rating” value (rape; [4])?
Answer: 5

Question: And the “Rape plant response rating” value (rape; [5])?
Answer: 0

Question: What about the “Rape plant response rating” value (rape; [6]) of the same compound?
Answer: 0

Question: What about the “Rape plant response rating” value (rape; [7]) of the same compound?
Answer: 0

Question: What about the “Plant response rating, Soybean” value (soybean; [1]) of the same compound?
Answer: 2

Question: And the “Soybean plant response rating” value (soybean; [2])?
Answer: 3

Question: And the “Plant response rating, Soybean” value (soybean; [3])?
Answer: 0

Question: And the “Soybean plant response rating” value (soybean; [4])?
Answer: 0

Question: And the “Soybean plant response rating” value (soybean; [5])?
Answer: 0

Question: And the “Soybean plant response rating” value (soybean; [6])?
Answer: 4

Question: And the “Soybean plant response rating” value (soybean; [7])?
Answer: 6

Question: What about the “Soybean plant response rating” value (soybean; [8]) of the same compound?
Answer: 0

Question: What about the “Plant response rating, Sugarbeets” value (sugar beet; [1]) of the same compound?
Answer: 0

Question: And the “Sugarbeets plant response rating” value (sugar beet; [2])?
Answer: 0

Question: And the “Sugarbeets plant response rating” value (sugar beet; [4])?
Answer: 3

Question: What about the “Sugarbeets plant response rating” value (sugar beet; [5]) of the same compound?
Answer: 0

Question: And the “Sugarbeets plant response rating” value (sugar beet; [6])?
Answer: 2

Question: And the “Sugarbeets plant response rating” value (sugar beet; [7])?
Answer: 2

Question: What about the “Sugarbeets plant response rating” value (sugar beet; [8]) of the same compound?
Answer: 5

Question: What about the “Plant response rating, Wheat” value (wheat; [1]) of the same compound?
Answer: 0

Question: What about the “Wheat plant response rating” value (wheat; [2]) of the same compound?
Answer: 0

Question: And the “Plant response rating, Wheat” value (wheat; [3])?
Answer: 0

Question: And the “Wheat plant response rating” value (wheat; [4])?
Answer: 0

Question: What about the “Wheat plant response rating” value (wheat; [5]) of the same compound?
Answer: 0

Question: And the “Wheat plant response rating” value (wheat; [6])?
Answer: 0

Question: What about the “Wheat plant response rating” value (wheat; [7]) of the same compound?
Answer: 4

Question: And the “Wheat plant response rating” value (wheat; [8])?
Answer: 3

Question: And the “Plant response rating, Nutsedge” value (purple nutsedge; [1])?
Answer: 0

Question: And the “Nutsedge plant response rating” value (purple nutsedge; [2])?
Answer: 0

Question: What about the “Plant response rating, Nutsedge” value (purple nutsedge; [3]) of the same compound?
Answer: 0

Question: And the “Nutsedge plant response rating” value (purple nutsedge; [4])?
Answer: 0

Question: What about the “Nutsedge plant response rating” value (purple nutsedge; [5]) of the same compound?
Answer: 0

Question: And the “Nutsedge plant response rating” value (purple nutsedge; [6])?
Answer: 0

Question: And the “Nutsedge plant response rating” value (purple nutsedge; [7])?
Answer: 0

Question: What about the “Nutsedge plant response rating” value (purple nutsedge; [8]) of the same compound?
Answer: 0

Question: And the “Rice plant response rating” value (rice; [9])?
Answer: 0

Question: And the “Rice plant response rating” value (rice; [10])?
Answer: 0

Question: What about the “Rice plant response rating” value (rice; [11]) of the same compound?
Answer: 0

Question: What about the “Rice plant response rating” value (rice; [12]) of the same compound?
Answer: 0

Question: What about the “S. Flatsedge plant response rating” value (smallflower flatsedge; [9]) of the same compound?
Answer: 0

Question: What about the “S. Flatsedge plant response rating” value (smallflower flatsedge; [10]) of the same compound?
Answer: 0

Question: What about the “S. Flatsedge plant response rating” value (smallflower flatsedge; [11]) of the same compound?
Answer: 0

Question: And the “S. Flatsedge plant response rating” value (smallflower flatsedge; [12])?
Answer: 0

Question: And the “Ducksalad plant response rating” value (duck salad; [9])?
Answer: 0

Question: What about the “Ducksalad plant response rating” value (duck salad; [10]) of the same compound?
Answer: 0

Question: And the “Ducksalad plant response rating” value (duck salad; [11])?
Answer: 0

Question: What about the “Ducksalad plant response rating” value (duck salad; [12]) of the same compound?
Answer: 0

Question: What about the “Barnyardgrass plant response rating” value (bamyardgrass; [9]) of the same compound?
Answer: 0

Question: And the “Barnyardgrass plant response rating” value (bamyardgrass; [10])?
Answer: 0

Question: And the “Barnyardgrass plant response rating” value (bamyardgrass; [11])?
Answer: 0

Question: And the “Barnyardgrass plant response rating” value (bamyardgrass; [12])?
Answer: 0
